Where a name gives a salt, the structure may show the parent alone.
These compounds were tested against T1, human V1a receptor (Homo sapiens, UniProt P37288) (assay: human V1a receptor binding studies (3H-Vasopressin, SPA beads)). Conditions: membranes from HEK293 cells transiently transfected with human V1a receptor, Ki calculated from IC50 by the Cheng-Prussoff equation, read-out: pKi (hV1a) (converted).
T1 construct: expressed in transfected cells; host or cells: HEK293 cells, transiently transfected; cell membranes
T1 sequence (P37288 whole entry): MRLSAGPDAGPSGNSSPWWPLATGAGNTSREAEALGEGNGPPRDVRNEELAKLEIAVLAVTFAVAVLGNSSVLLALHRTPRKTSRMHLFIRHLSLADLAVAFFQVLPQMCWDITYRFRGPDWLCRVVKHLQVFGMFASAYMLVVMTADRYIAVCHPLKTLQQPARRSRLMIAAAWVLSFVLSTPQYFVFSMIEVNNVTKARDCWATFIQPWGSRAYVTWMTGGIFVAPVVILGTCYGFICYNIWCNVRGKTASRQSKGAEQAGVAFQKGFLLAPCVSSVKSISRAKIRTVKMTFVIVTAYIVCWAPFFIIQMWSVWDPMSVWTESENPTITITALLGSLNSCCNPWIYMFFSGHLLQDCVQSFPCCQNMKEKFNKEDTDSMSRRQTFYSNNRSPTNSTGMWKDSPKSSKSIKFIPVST
Experimental: The human V1a receptor was cloned by RT-PCR from total human liver RNA. The coding sequence was subcloned in an expression vector after sequencing to confirm the identity of the amplified sequence. […] Cell membranes were prepared from HEK293 cells transiently transfected with the expression vector and grown in 20 liter fermenters with the following protocol.
50 g of cells are resuspended in 30 ml freshly prepared ice cold Lyses buffer (50 mM HEPES, 1 mM EDTA, 10 mM magnesium dichloride adjusted to pH=7.4+complete cocktail of protease inhibitor (Roche Diagnostics)). Homogenized with Polytron for 1 min and solicited on ice for 2×2 minutes at 80% intensity (Vibrate solicitor). The preparation is centrifuged 20 min at 500 g at 4° C., the pellet is discarded and the supernatant centrifuged 1 hour at 43′000 g at 4° C. (19′000 rpm). The pellet is resuspended in 12.5 ml Lyses buffer+12.5 ml sucrose 20% and homogenized using a Polytron for 1-2 min. The protein concentration is determined by the Bradford method and aliquots are stored at −80° C. until use. For binding studies 60 mg Yttrium silicate SPA beads (Habersham®) are mixed with an aliquot of membrane in binding buffer (50 mM Tris, 120 mM sodium chloride, 5 mM potassium chloride, 2 mM calcium dichloride, 10 mM magnesium dichloride) for 15 minutes with mixing. 50 μl of bead/membrane mixture is then added to each well of a 96 well plate, followed by 50 μl of 4 nM 3H-Vasopressin (American Radiolabeled Chemicals). For total binding measurement 100 μl of binding buffer are added to the respective wells, for non-specific binding 100 μl of 8.4 mM cold vasopressin and for compound testing 100 μl of a serial dilution of each compound in 2% dimethyl sulfoxide. The plate is incubated 1 h at room temperature, centrifuged 1 min at 1000 g and counted on a Packard Top-Count. Non-specific binding counts are subtracted from each well and data is normalized to the maximum specific binding set at 100%. To calculate an IC50 the curve is fitted using a non-linear regression model (XLfit) and the Ki is calculated using the Cheng-Prussoff equation.
Compound `CC(C)(C)OC(=O)N1Cc2cc(Cl)ccc2-n2c(nnc2[C@H]2CC[C@H](c3ccccn3)CC2)C1` [Example 1, trans-8-Chloro-1-(4-pyridin-2-yl-cyclohexyl)-4H,6H-2,3,5,10b-tetraaza-benzo[e]azulene-5-carboxylic acid tert-butyl ester] has a Ki of 1.91 nM.
For `Clc1ccc2c(c1)CNCc1nnc([C@H]3CC[C@H](c4ccccn4)CC3)n1-2` [Example 2, trans-8-Chloro-1-(4-pyridin-2-yl-cyclohexyl)-5,6-dihydro-4H-2,3,5,10b-tetraaza-benzo[e]azulene dihydrochloride], the Ki was 10 nM.
`CN1Cc2cc(Cl)ccc2-n2c(nnc2[C@H]2CC[C@H](c3ccccn3)CC2)C1` [Example 3, trans-8-Chloro-5-methyl-1-(4-pyridin-2-yl-cyclohexyl)-5,6-dihydro-4H-2,3,5,10b-tetraaza-benzo[e]azulene] gave a Ki of 0.794 nM.
For `Cc1cccc([C@H]2CC[C@H](c3nnc4n3-c3ccc(Cl)cc3CN(C(=O)OC(C)(C)C)C4)CC2)n1` [Example 4, trans-8-Chloro-1-[4-(6-methyl-pyridin-2-yl)-cyclohexyl]-4H,6H-2,3,5,10b-tetraaza-benzo[e]azulene-5-carboxylic acid tert-butyl ester], the Ki was 0.2 nM.
In the case of `Cc1cccc([C@H]2CC[C@H](c3nnc4n3-c3ccc(Cl)cc3CNC4)CC2)n1` [Example 5, trans-8-Chloro-1-[4-(6-methyl-pyridin-2-yl)-cyclohexyl]-5,6-dihydro-4H-2,3,5,10b-tetraaza-benzo[e]azulene], the Ki is reported as 13.8 nM.
In the case of `Cc1cccc([C@H]2CC[C@H](c3nnc4n3-c3ccc(Cl)cc3CN(C)C4)CC2)n1` [Example 6, trans-8-Chloro-1-[4-(6-methyl-pyridin-2-yl)-cyclohexyl]-5-methyl-5,6-dihydro-4H-2,3,5,10b-tetraaza-benzo[e]azulene], the Ki is reported as 0.891 nM.
In the case of `CCc1cccc([C@H]2CC[C@H](c3nnc4n3-c3ccc(Cl)cc3CN(C(=O)OC(C)(C)C)C4)CC2)n1` [Example 7, trans-8-Chloro-1-[4-(6-ethyl-pyridin-2-yl)-cyclohexyl]-4H,6H-2,3,5,10b-tetraaza-benzo[e]azulene-5-carboxylic acid tert-butyl ester], the Ki is reported as 1 nM.
For `CCc1cccc([C@H]2CC[C@H](c3nnc4n3-c3ccc(Cl)cc3CNC4)CC2)n1` [Example 8, trans-8-Chloro-1-[4-(6-ethyl-pyridin-2-yl)-cyclohexyl]-5,6-dihydro-4H-2,3,5,10b-tetraaza-benzo[e]azulene], the Ki was 44.7 nM.
Compound `CCc1cccc([C@H]2CC[C@H](c3nnc4n3-c3ccc(Cl)cc3CN(C)C4)CC2)n1` [Example 9, trans-8-Chloro-1-[4-(6-ethyl-pyridin-2-yl)-cyclohexyl]-5-methyl-5,6-dihydro-4H-2,3,5,10b-tetraaza-benzo[e]azulene] has a Ki of 1.1 nM.
`CC(C)c1cccc([C@H]2CC[C@H](c3nnc4n3-c3ccc(Cl)cc3CN(C(=O)OC(C)(C)C)C4)CC2)n1` [Example 10, trans-8-Chloro-1-[4-(6-isopropyl-pyridin-2-yl)-cyclohexyl]-4H,6H-2,3,5,10b-tetraaza-benzo[e]azulene-5-carboxylic acid tert-butyl ester] showed a Ki of 2.19 nM.
`CC(C)c1cccc([C@H]2CC[C@H](c3nnc4n3-c3ccc(Cl)cc3CNC4)CC2)n1` [Example 11, trans-8-Chloro-1-[4-(6-isopropyl-pyridin-2-yl)-cyclohexyl]-5,6-dihydro-4H-2,3,5,10b-tetraaza-benzo[e]azulene hydrochloride] was tested, and the Ki was 70.8 nM.
In the case of `CC(C)c1cccc([C@H]2CC[C@H](c3nnc4n3-c3ccc(Cl)cc3CN(C)C4)CC2)n1` [Example 12, trans-8-Chloro-1-[4-(6-isopropyl-pyridin-2-yl)-cyclohexyl]-5-methyl-5,6-dihydro-4H-2,3,5,10b-tetraaza-benzo[e]azulene], the Ki is reported as 8.51 nM.
With `COc1cccc([C@H]2CC[C@H](c3nnc4n3-c3ccc(Cl)cc3CN(C(=O)OC(C)(C)C)C4)CC2)n1` [Example 13, trans-8-Chloro-1-[4-(6-methoxy-pyridin-2-yl)-cyclohexyl]-4H,6H-2,3,5,10b-tetraaza-benzoazulene-5-carboxylic acid tert-butyl ester] the Ki was 0.501 nM.
Compound `COc1cccc([C@H]2CC[C@H](c3nnc4n3-c3ccc(Cl)cc3CNC4)CC2)n1` [Example 14, trans-8-Chloro-1-[4-(6-methoxy-pyridin-2-yl)-cyclohexyl]-5,6-dihydro-4H-2,3,5,10b-tetraaza-benzo[e]azulene] has a Ki of 56.2 nM.
`COc1cccc([C@H]2CC[C@H](c3nnc4n3-c3ccc(Cl)cc3CN(C)C4)CC2)n1` [Example 15, trans-8-Chloro-1-[4-(6-methoxy-pyridin-2-yl)-cyclohexyl]-5-methyl-5,6-dihydro-4H-2,3,5,10b-tetraaza-benzo[e]azulene] gave a Ki of 3.31 nM.
`CC(C)(C)OC(=O)N1Cc2cc(Cl)ccc2-n2c(nnc2[C@H]2CC[C@H](c3cccc(Cl)n3)CC2)C1` [Example 16, trans-8-Chloro-1-[4-(6-chloro-pyridin-2-yl)-cyclohexyl]-4H,6H-2,3,5,10b-tetraaza-benzoazulene-5-carboxylic acid tert-butyl ester] gave a Ki of 0.302 nM.
With `Clc1ccc2c(c1)CNCc1nnc([C@H]3CC[C@H](c4cccc(Cl)n4)CC3)n1-2` [Example 17, trans-8-Chloro-1-[4-(6-chloro-pyridin-2-yl)-cyclohexyl]-5,6-dihydro-4H-2,3,5,10b-tetraaza-benzo[e]azulene] the Ki was 2.82 nM.
`CN1Cc2cc(Cl)ccc2-n2c(nnc2[C@H]2CC[C@H](c3cccc(Cl)n3)CC2)C1` [Example 18, trans-8-Chloro-1-[4-(6-chloro-pyridin-2-yl)-cyclohexyl]-5-methyl-5,6-dihydro-4H-2,3,5,10b-tetraaza-benzo[e]azulene] gave a Ki of 0.603 nM.
With `CC(C)(C)OC(=O)N1Cc2cc(Cl)ccc2-n2c(nnc2[C@H]2CC[C@H](c3cccc(F)n3)CC2)C1` [Example 19, trans-8-Chloro-1-[4-(6-fluoro-pyridin-2-yl)-cyclohexyl]-4H,6H-2,3,5,10b-tetraaza-benzoazulene-5-carboxylic acid tert-butyl ester] the Ki was 0.603 nM.
With `Fc1cccc([C@H]2CC[C@H](c3nnc4n3-c3ccc(Cl)cc3CNC4)CC2)n1` [Example 20, trans-8-Chloro-1-[4-(6-fluoro-pyridin-2-yl)-cyclohexyl]-5,6-dihydro-4H-2,3,5,10b-tetraaza-benzo[e]azulene] the Ki was 16.6 nM.
`CN1Cc2cc(Cl)ccc2-n2c(nnc2[C@H]2CC[C@H](c3cccc(F)n3)CC2)C1` [Example 21, trans-8-Chloro-1-[4-(6-fluoro-pyridin-2-yl)-cyclohexyl]-5-methyl-5,6-dihydro-4H-2,3,5,10b-tetraaza-benzo[e]azulene] showed a Ki of 1.82 nM.
In the case of `CC(C)(C)OC(=O)N1Cc2cc(Cl)ccc2-n2c(nnc2[C@H]2CC[C@H](c3ccc(F)cn3)CC2)C1` [Example 22, trans-8-Chloro-1-[4-(5-fluoro-pyridin-2-yl)-cyclohexyl]-4H,6H-2,3,5,10b-tetraaza-benzo[e]azulene-5-carboxylic acid tert-butyl ester], the Ki is reported as 0.302 nM.
In the case of `Fc1ccc([C@H]2CC[C@H](c3nnc4n3-c3ccc(Cl)cc3CNC4)CC2)nc1` [Example 23, trans-8-Chloro-1-[4-(5-fluoro-pyridin-2-yl)-cyclohexyl]-5,6-dihydro-4H-2,3,5,10b-tetraaza-benzo[e]azulene dihydrochloride], the Ki is reported as 7.24 nM.
Compound `CN1Cc2cc(Cl)ccc2-n2c(nnc2[C@H]2CC[C@H](c3ccc(F)cn3)CC2)C1` [Example 24, trans-8-Chloro-1-[4-(5-fluoro-pyridin-2-yl)-cyclohexyl]-5-methyl-5,6-dihydro-4H-2,3,5,10b-tetraaza-benzo[e]azulene] has a Ki of 1 nM.
Compound `CC(C)(C)OC(=O)N1Cc2cc(Cl)ccc2-n2c(nnc2[C@H]2CC[C@H](c3cc(Cl)ccn3)CC2)C1` [Example 25, trans-8-Chloro-1-[4-(4-chloro-pyridin-2-yl)-cyclohexyl]-4H,6H-2,3,5,10b-tetraaza-benzo[e]azulene-5-carboxylic acid tert-butyl ester] has a Ki of 0.427 nM.
Compound `Clc1ccc2c(c1)CNCc1nnc([C@H]3CC[C@H](c4cc(Cl)ccn4)CC3)n1-2` [Example 26, trans-8-Chloro-1-[4-(4-chloro-pyridin-2-yl)-cyclohexyl]-5,6-dihydro-4H-2,3,5,10b-tetraaza-benzo[e]azulene] has a Ki of 1 nM.
Work on `CN1Cc2cc(Cl)ccc2-n2c(nnc2[C@H]2CC[C@H](c3cc(Cl)ccn3)CC2)C1` [Example 27, trans-8-Chloro-1-[4-(4-chloro-pyridin-2-yl)-cyclohexyl]-5-methyl-5,6-dihydro-4H-2,3,5,10b-tetraaza-benzo[e]azulene] yielded a Ki of 0.537 nM.
